Measured values: US20240228493A1, “LRRK2 INHIBITORS AND USES THEREOF” (NEURON23, ICN., priority 2022, published 2024)
pIC50: −log10 of the molar value.

Legend:
human hepatocyte = experiment: Human hepatocyte stability, predicted hepatic clearance (h-Hept CL predict); format: in vitro ADME; settings: human hepatocytes, 0.5×10^6 cells/mL, 1 μM, values without asterisk
Protocol: The compounds disclosed herein were tested in vitro on human hepatocyte for in vitro h-Hept CL predict according to the following procedures. • 1. Compound sock solutions were prepared by dissolving test compound and positive control in dimethyl sulfoxide (DMSO) at a concentration of 10 mM. Stock solutions were then diluted to 100 μM solutions by combining 198 μL of 50% acetonitrile/50% water with 2 μL of the 10 mM stock in separate conical tubes. • 2. Cryopreserved hepatocytes were prepared as follows: Incubation medium (William's E Medium supplemented with GlutaMAX) and hepatocyte thawing medium were placed in a 37° C. water bath and allowed to warm for at least 15 minutes prior to use. Cryopreserved hepatocytes were removed from storage, ensuring that vials remained at cryogenic temperatures until thawed. Cells were thawed by placing the vials in a 37° C. water bath and gently shaking the vials for 2 minutes. After thawing was completed, vials were sprayed with 70% ethanol and transferred to a biosafety cabinet. Hepatocytes were transferred into 50 mL conical tube containing thawing medium using wide-bore pipette tips. Tubes were placed into a centrifuge and spun at 100 g for 10 minutes. Then thawing medium was aspirated and hepatocytes were resuspended in enough incubation medium to yield ˜1.5×10^6 cells/mL. Cells were counted using acridine orange and propidium iodide (AO/PI) staining, and the viable cell density was determined. Cells were diluted with incubation medium to a working cell density of 0.5×10^6 viable cells/mL. • 3. To determine hepatocyte stability, 198 μL of hepatocytes were transferred into each well of a 96-well non-coated plate. Plates were placed in an incubator to allow the hepatocytes to warm for 10 minutes. • 4. The reaction was started by transferring 2 μL of the 100 μM test compound or positive control solution into respective wells of the 96-well non-coated plates. Plates were returned to the incubator until 25 μL aliquots of well contents were sampled at time points of 0, 15, 30, 60, 90 and 120 minutes. The aliquots were then mixed with 6 volumes (150 μL) of acetonitrile containing internal standard, IS (100 nM alprazolam, 200 nM caffeine and 100 nM tolbutamide) to terminate the reaction and vortexed for 5 minutes. After centrifuging the samples for 45 minutes at 3,220 g, aliquots of 100 μL of the supernatant were taken and diluted with 100 μL of ultra-pure water. The mixture was used for LC/MS/MS analysis. All incubations were performed in duplicate.
All calculations were carried out using Microsoft Excel. Peak area ratios (PAR) were determined from extracted ion chromatograms. The in vitro half-life (t1/2) of parent compound was determined by regression analysis of the percent parent disappearance vs. time curve as follows:
Conversion of the in vitro t1/2 (in minutes) into the in vitro intrinsic clearance (in vitro CLint, in μL/min/1×10^6 cells) was done using the following equation (mean of duplicate determinations): […]
The scaled-up intrinsic clearance (CLint, mL/min/kg), predicted hepatic clearance (CLH, mL/min/kg) and hepatic extraction ratio (ER) were calculated using the following equations:
CLint=(0.693/t1/2)*(1/(hepatocyte concentration (0.5*10^6 cells/mL)))*scaling factors (Table (A) Appendix Table 1)
CLHept-predict=(QH*Scaled-up CLint*fub)/(QH+Scaled-up CLint*fub)
ER=CLH/QH • Where: • V=incubation volume (0.2 mL) • N=number of hepatocytes per well (0.1*10^6 cells) • QH=hepatic blood flow (mL/min/kg) (Table (A) Appendix Table 1) • fub=fraction of unbound drug in plasma, assumed to be 1

Caco-2 cells = experiment: Caco-2 bidirectional permeability; format: in vitro ADME; settings: for Caco-2 ER: Efflux Ratio=Papp(BA)/Papp(AB); for Caco-2 A2B (10^−6 cm/s): apical to basolateral; for Caco-2 A2B (10^−6 cm/s) / Caco-2 B2A (10^−6 cm/s): 2 hours, pH 7.4; for Caco-2 B2A (10^−6 cm/s): basolateral to apical
Protocol: The compounds disclosed herein were tested in vitro on CaCo2 cell penetration according to the following procedures.
Caco-2 cells purchased from ATCC were seeded onto […] (PET) in 96-well Corning Insert plates at 1×10^5 cells/cm^2. The media were refreshed every 4 to 5 days until the 21st to 28th day for confluent cell monolayer formation.
Experiments were run in duplicate using a HBSS transport buffer containing 10 mM HEPES at pH 7.4. The test article TEST COMPOUND was tested bi-directionally at […] concentrations, the control compound digoxin was tested bi-directionally at 10 μM, and nadolol and metoprolol were tested at 2.0 μM in the A to B direction. Final DMSO concentrations were adjusted to less than 1%. The plates were incubated for 2 hours in a CO2 incubator at 37±1° C. with 5% CO2 at saturated humidity without shaking. Following incubation, samples were mixed with acetonitrile containing internal standard and centrifuged at 3200×g for 10 minutes. Then 200 μL of supernatant was taken from all samples. For TEST COMPOUND and digoxin, the supernatant was diluted with 200 μL of ultra-pure water and for nadolol and metoprolol, the supernatant was diluted with 600 μL of ultra-pure water. All samples were analyzed by LC-MS/MS. Concentrations of TEST COMPOUND and control compounds were determined in starting solutions, donor well solutions, and receiver well solutions using peak area ratios (PAR) of analyte to internal standard. After the transport assay, a lucifer yellow rejection assay was run to determine the Caco-2 cell monolayer integrity.
The apparent permeability (Papp), the % recovery and the efflux ratio were calculated as follows:
Papp=(dCr/dt)×Vr/(A×C0) 1.
Efflux Ratio=Papp(BA)/Papp(AB) 3. • Where: • dCr/dt is the slope of the cumulative concentration in the receiver compartment versus time (mM/s). • Vr and Vd is the volume in the receiver and donor compartments (0.075 mL on the apical side, 0.25 mL on the basolateral side), respectively. • A is the surface area of the cell monolayer (0.0804 cm^2). • C0 is the measured donor concentrations (μM) at the beginning of the experiment. • Cd and Cr are the final measured concentrations in the donor and receiver compartments, respectively.

[1] = target: T1, wt human LRRK2, catalytic site (Homo sapiens, UniProt Q5S007); experiment: TR-FRET LanthaScreen Tb Kinase Activity Assay, LRRK2 inhibition; format: biochemical; settings: 2 nM wt human LRRK2, 400 nM peptide, 38 μM ATP
T1 construct: wt human LRRK2, catalytic site, catalytic site (ThermoFisher/USA); purchased ThermoFisher
Protocol: The compounds disclosed herein were tested for their inhibitory effect on LRRK2 kinase according to the following procedures.
The protocol for basic TR-FRET LanthaScreen Tb Kinase Activity Assay inhibitor studies were as follows. LanthaScreen Kinase Activity Assays (ThermoFisher/USA) to evaluate inhibitors were performed by addition of 100 nL of test compound in corresponding DMSO dilutions/5 μL of kinase/fluorescein-ERM (LRRKtide) peptide mixture, Compound & kinase were pre-incubated for 15 minutes, then 5 μl of ATP into 384 well small volume plates. After incubation for 120 minutes at room temperature, the detection reagents containing Tb-anti-pLRRKtide antibody were added to monitor phosphorylation level of peptide. Then, after 60 min minutes incubation at room temperature plates were read in Envision. Data analysis of emission ratios was according to LanthaScreen Tb Kinase Activity Assay protocol.
Kinase and assay components were adjusted to final concentrations according to the kit protocol. For LRRK2: 2 nM wt human LRRK2, catalytic site, catalytic site (ThermoFisher/USA), 400 nM peptide, 38 μM ATP in 1× Kinase Buffer A. […]
Kinase and assay components were adjusted to final concentrations according to the kit protocol.

T1 sequence (Q5S007 1879-2138 limits assumed): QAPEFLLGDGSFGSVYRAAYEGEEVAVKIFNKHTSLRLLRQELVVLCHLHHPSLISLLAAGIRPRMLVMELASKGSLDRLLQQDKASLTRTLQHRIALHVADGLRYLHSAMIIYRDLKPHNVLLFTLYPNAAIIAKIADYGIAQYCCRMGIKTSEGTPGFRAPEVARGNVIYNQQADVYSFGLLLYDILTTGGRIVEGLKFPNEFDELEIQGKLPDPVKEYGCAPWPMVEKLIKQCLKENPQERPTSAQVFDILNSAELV

| Structure (SMILES) | hHep Cl (mL/min/kg) (human hepatocyte) | Caco-2 ER (Caco-2 cells) | Caco-2 A2B (10^−6 cm/s) (Caco-2 cells) | Caco-2 B2A (10^−6 cm/s) (Caco-2 cells) | pIC50 [1] |
| --- | --- | --- | --- | --- | --- |
| Cc1n[nH]c2c1N=C(c1c(F)cccc1F)Nc1cnc(N3CCO[C@@]4(CCOC4)C3)cc1-2 (single isomer, unassigned) [Example 3] | L (L (Low Cl)”: Hep Cl (mL/min/kg)<6.3) | L (L (Likely)”: ER≥2.5) | M (M (Moderate permeability)”: 1≤A2B (B2A)≤5) | H (H (High permeability)”: A2B (B2A)>5) | > 9.00 |
| Cc1n[nH]c2c1N=C(c1c(F)cccc1F)Nc1cnc(N3CCO[C@]4(CCOC4)C3)cc1-2 (single isomer, unassigned) [Example 4] | L (L (Low Cl)”: Hep Cl (mL/min/kg)<6.3) | L (L (Likely)”: ER≥2.5) | M (M (Moderate permeability)”: 1≤A2B (B2A)≤5) | H (H (High permeability)”: A2B (B2A)>5) | > 9.00 |
| Cc1n[nH]c2c1N=C(c1c(F)cccc1F)Nc1cnc(N3CCC[C@](C)(C#N)C3)cc1-2 (single isomer, unassigned) [Example 13] | I (I (Intermediate Cl)”: 6.3≤Hep Cl (mL/min/kg)≤14.7) | L (L (Likely)”: ER≥2.5) | M (M (Moderate permeability)”: 1≤A2B (B2A)≤5) | H (H (High permeability)”: A2B (B2A)>5) | > 9.00 |
| Cc1n[nH]c2c1N=C(c1c(F)cccc1F)Nc1cnc(N3CCN(CCF)CC3)cc1-2 [Example 1, 8-(2,6-difluorophenyl)-13-[4-(2-fluoroethyl)piperazin-1-y1]-5-methyl-3,4,7,9,12-pentazatricyclo[8.4.0.02,6]tetradeca-1(10),2(6),4,7,11,13-hexaene] | I (I (Intermediate Cl)”: 6.3≤Hep Cl (mL/min/kg)≤14.7) | L (L (Likely)”: ER≥2.5) | M (M (Moderate permeability)”: 1≤A2B (B2A)≤5) | H (H (High permeability)”: A2B (B2A)>5) | > 9.00 |
| Cc1n[nH]c2c1N=C(c1c(F)cccc1F)Nc1cnc(N3CCOC4(COC4)C3)cc1-2 [Example 5, 8-[8-(2,6-difluorophenyl)-5-methyl-3,4,7,9,12-pentazatricyclo[8.4.0.02,6]tetradeca-1(10),2(6),4,7,11,13-hexaen-13-y1]-2,5-dioxa-8-azaspiro[3.5]nonane] | L (L (Low Cl)”: Hep Cl (mL/min/kg)<6.3) | L (L (Likely)”: ER≥2.5) | L (L (Low permeability)”: A2B (B2A)<1) | H (H (High permeability)”: A2B (B2A)>5) | > 9.00 |
| Cc1n[nH]c2c1N=C(c1c(F)cccc1F)Nc1cnc(N3CCNC4(COC4)C3)cc1-2 [Example 7, 8-[8-(2,6-difluorophenyl)-5-methyl-3,4,7,9,12-pentazatricyclo[8.4.0.02,6]tetradeca-1(10),2(6),4,7,11,13-hexaen-13-y1]-2-oxa-5,8-diazaspiro[3.5]nonane] | L (L (Low Cl)”: Hep Cl (mL/min/kg)<6.3) | L (L (Likely)”: ER≥2.5) | L (L (Low permeability)”: A2B (B2A)<1) | H (H (High permeability)”: A2B (B2A)>5) | > 9.00 |
| Cc1n[nH]c2c1N=C(c1c(F)cccc1F)Nc1cnc(N3CCN(C)CC3)cc1-2 [Example 8, 8-(2,6-difluorophenyl)-5-methyl-13-(4-methylpiperazin-1-y1)-3,4,7,9,12-pentazatricyclo[8.4.0.02,6]tetradeca-1(10),2(6),4,7,11,13-hexaene] | L (L (Low Cl)”: Hep Cl (mL/min/kg)<6.3) | L (L (Likely)”: ER≥2.5) | M (M (Moderate permeability)”: 1≤A2B (B2A)≤5) | H (H (High permeability)”: A2B (B2A)>5) | > 9.00 |
